Experimental data from patent US20220280590A1, “USE OF INHIBITORS OF YAP AND SOX2 FOR THE TREATMENT OF CANCER” (Georgetown University, priority 2019, published 2022).

Key:
[1] = tested on: primary KYYF pancreatic tumor cells; assay: Percent of global DNA methylation in KYYF cells; assay type: cell-based, mouse; conditions: 5 μM, 3 days versus DMSO
Excerpt: (§1) (*P<0.05; **P<0.005; ***P<0.0005; ns: not significant; error bars indicate standard deviation).
(§2) Quantitative methylation-specific PCR (qMSP) was used to confirm that the promoters of acinar lineage genes Ptf1a and Bhlha15 became heavily methylated in KF pancreatic tumors in contrast to wild type (WT) pancreata, which was partially reversed in KYYF pancreata after TAM treatment (FIG. 5L). To directly assess the effects of DNA de-methylation on the expression of pancreatic lineage genes, YAP^+ primary pancreatic tumor cells were treated with vehicle control or DNA methylation inhibitor 5-azacytidine (5-Aza). […] The levels of global DNA methylation in primary KYYF pancreatic tumor cells were measured following treatment with Ad-GFP or Ad-CRE, and it was confirmed that YAP ablation induced a rapid and significant decline in global DNA methylation, which partially recovered over time (FIG. 5B).

[2] = tested on: primary KYYF pancreatic tumor cells; assay: Relative mRNA levels of lineage genes and SOX2 in KYYF pancreatic tumor cells; assay type: cell-based, mouse; conditions: YAP+ primary pancreatic tumor cells, 0.5, 2, 5 μM for 3 days versus DMSO
Excerpt: as §1, §2

[3] = tested on: SOX2, SOX5, and TWIST2 in primary PDAC cell lines; assay: Western blot of pluripotent transcription factors in primary PDAC lines; assay type: cell-based; conditions: after 24 hours, compared to DMSO control
Protocol: Western blot assay with indicated antibodies in four different primary PDAC lines expressing variable levels of SOX2/SOX5/TWIST2 after 24 hr treatment with DMSO (−) or Miv (+) is shown. Multiple primary PDAC cell lines were treated with BET inhibitor mivebresib.

[4] = tested on: mT4, 08031-9, MD-MB-231, 786-O and HepG2 cells; assay: FACS analysis of relative ratios of control (RFP-) and YAP/TAZ-depleted (shY/T, RFP+) cancer cells in co-culture; assay type: cell-based; conditions: compared to vehicle, pancreatic, schwannoma, breast, kidney and liver cancer lines
Protocol: FACS analysis of the relative ratios of control (Ctrl, RFP-) or YAP/TAZ-depleted (shY/T, RFP^+) cancer cells after co-culturing in the presence of vehicle (Veh) or BE inhibitor mivebresib (Miv) was performed (n=3). […] The YAP/TAZ hairpin RNAs were fused with fluorescent protein RFP. […] (FIG. 8).

| SMILES | global DNA methylation [1] | expression of acinar and endocrine lineage genes and SOX2 [2] | expression of pluripotent transcription factors SOX2, SOX5, and TWIST2 [3] | percentage of control (RFP-) relative to shY/T (RFP+) cancer cells [4] |
| --- | --- | --- | --- | --- |
| Nc1ncn([C@@H]2O[C@H](CO)[C@@H](O)[C@H]2O)c(=O)n1 [5-Aza, 5-azacytidine] | global DNA de-methylation | dose-dependent upregulation |  |  |
| CCS(=O)(=O)Nc1ccc(Oc2ccc(F)cc2F)c(-c2cn(C)c(=O)c3[nH]ccc23)c1 [mivebresib] |  |  | selectively reduced | greater percentage of control (RFP^−) cancer cells relative to shY/T (RFP^+) cancer cells |
